Measured values published in the supplement of paper PMC10307832.

Compound: CCc1cnn2c(NCc3ccc[n+]([O-])c3)cc(N3CCCC[C@H]3CCO)nc12 [Dinaciclib] + CC(=O)c1c(C)c2cnc(Nc3ccc(N4CCNCC4)cn3)nc2n(C2CCCC2)c1=O [Palbociclib] (partner 0.5 µM)
Test: relative viability (nuclei count vs DMSO), 5 days (fraction); higher = more cells survive
Method in brief: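 Medians of duplicate plates are given as relative viability. That measure is the nuclei count in treated wells divided by the count in vehicle wells. Counts were taken on 4× images of lung cancer cell lines in 1536-well plates, 5 days after pin-tool dosing the day after seeding with one drug alone or a fixed anchor-drug dose plus five library-drug doses (not always all listed) in √10 steps.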

Cell Line	relative viability (first compound 0.009487 µM)	relative viability (first compound 0.03 µM)	relative viability (first compound 0.09487 µM)	relative viability (first compound 0.3 µM)
201T	0.354	0.285	0.231	0.228
A-427	0.437	0.142	0.126	0.127
ABC-1	0.648	0.334	0.212	0.246
BEN	0.458	0.386	0.287	0.296
CAL-12T	0.121	0.137	0.108	0.128
COR-L23	0.222	0.0905	0.0689	0.0651
COR-L 105	0.414	0.311	0.296	0.309
ChaGo-K-1	0.971	0.239	0.118	0.114
EKVX	0.323	0.234	0.114	0.113
EMC-BAC-2	0.46	0.323	0.224	0.248
EPLC-272H	0.275	0.0744	0.0435	0.0386
H3255	0.315	0.257	0.232	0.225
HARA	0.204	0.126	0.0948	0.0798
HCC-15	0.673	0.292	0.107	0.132
HCC-44	0.9	0.798	0.367	0.342
HCC-78	0.432	0.374	0.253	0.3
HCC-366	0.272	0.0382	0.0205	0.0359
HCC-827	0.387	0.169	0.14	0.121
HOP-62	0.465	0.187	0.071	0.0775
LC-2-ad	0.411	0.204	0.114	0.136
LCLC-97TM1	0.18	0.0731	0.0753	0.0729
LCLC-103H	0.402	0.441	0.208	0.192
LK-2	0.543	0.109	0.107	0.0837
LOU-NH91	0.508	0.307	0.268	0.273

Cell Line	relative viability (first compound 0.009487 µM)	relative viability (first compound 0.03 µM)	relative viability (first compound 0.09487 µM)	relative viability (first compound 0.3 µM)
LU99A	0.383	0.124	0.138	0.106
LXF-289	0.598	0.213	0.0821	0.108
NCI-H23	0.304	0.167	0.0992	0.103
NCI-H322M	0.441	0.392	0.373	0.384
NCI-H358	0.142	0.095	0.0882	0.096
NCI-H441	0.197	0.148	0.125	0.113
NCI-H460	0.0704	0.0127	0.0174	0.0151
NCI-H520	0.232	0.142	0.134	0.126
NCI-H522	1.19	0.855	0.316	0.255
NCI-H647	0.18	0.111	0.0539	0.0401
NCI-H650	0.374	0.171	0.128	0.101
NCI-H661	0.431	0.188	0.14	0.153
NCI-H727	0.633	0.38	0.361	0.383
NCI-H838	0.224	0.143	0.0896	0.0812
NCI-H1355	0.425	0.311	0.154	0.137
NCI-H1395	0.596	0.311	0.248	0.248
NCI-H1437	0.245	0.203	0.117	0.119
NCI-H1650	0.343	0.0912	0.115	0.0963
NCI-H1651	0.519	0.383	0.148	0.0571
NCI-H1666	0.672	0.442	0.6	0.541
NCI-H1734	0.26	0.135	0.122	0.126
NCI-H1755	0.423	0.316	0.223	0.238
NCI-H1792	0.677	0.365	0.217	0.152
NCI-H1793	0.251	0.168	0.131	0.135

Cell Line	relative viability (first compound 0.009487 µM)	relative viability (first compound 0.03 µM)	relative viability (first compound 0.09487 µM)	relative viability (first compound 0.3 µM)
NCI-H1915	0.474	0.121	0.125	0.113
NCI-H1944	0.39	0.13	0.147	0.123
NCI-H1975	0.578	0.188	0.102	0.105
NCI-H1993	0.602	0.36	0.506	0.433
NCI-H2009	0.243	0.0729	0.0659	0.057
NCI-H2023	0.301	0.0599	0.0471	0.063
NCI-H2085	0.514	0.503	0.22	0.211
NCI-H2087	0.22	0.086	0.0942	0.0781
NCI-H2126	0.333	0.3	0.207	0.198
NCI-H2170	0.387	0.122	0.103	0.117
NCI-H2228	0.651	0.115	0.0872	0.0982
NCI-H2347	0.506	0.321	0.21	0.212
NCI-H2405	0.542	0.22	0.199	0.188
NCI-H3122	0.175	0.108	0.0876	0.0895
PC-3 [JPC-3]	0.535	0.489	0.365	0.29
PC-14	0.215	0.0424	0.0361	0.0423
RERF-LC-KJ	0.907	0.216	0.139	0.157
SK-LU-1	0.393	0.229	0.17	0.165
SK-MES-1	0.327	0.179	0.18	0.154
SW 900	0.57	0.318	0.13	0.158
SW 1573	0.218	0.0747	0.0634	0.0773
UMC-11	0.29	0.173	0.177	0.167
